This experiment has as its system primary cultured cells of myotubes derived from the DMRV model mice. Nature of the experiment: Amount of NeuAc by HPLC in myotubes from DMRV model mice. It is filed as cell-based. The following applies: 100 or 500 μm Ac5GlcNAcol together with 10 mM ManNAc, three days. The protocol:
The skeletal muscle tissues collected from the DMRV human patients or the model mice were lightly washed with PBS or Hank's balanced saline and were treated with 0.25% trypsin for 5 minutes. The tissues were finely cut into several millimeters with ophthalmic scissors, were digested with 0.4% collagenase II/0.25% trypsin at 37° C. for 30 minutes, and were left still to collect supernatant. The precipitate was again treated with the enzyme liquid. After being left still, the precipitate was well suspended in a DMEM-Ham's F-12 culture medium. The tissue suspension was passed through a nylon mesh to remove the tissues. The washings and the supernatant were centrifuged to collect cells. […]
In the case that the sample was cultured cells, the cells were washed with PBS three times, and 400 p. […] The fluorescent derivative thus prepared was analyzed with HPLC (JASCO Corp.) using 0.05 to 5 nmol/μl Neu5Ac and Neu5Gc standards. The amount of protein from the tissue was measured with a Bio-Rad Protein Assay kit (Bio-Rad Laboratories).
ManNAc or Ac5GlcNAcol was added to the culture media of primary cultured cells of myotubes derived from the DMRV model mice such that the final concentration of ManNAc was 10 mM and the final concentration of Ac5GlcNAcol was […]. […] The amount of NeuAc in the cultured cells was measured by the HPLC method described above (N=3).

Regarding `CC(=O)N[C@@H](COC(C)=O)[C@@H](OC(C)=O)[C@H](OC(C)=O)[C@@H](COC(C)=O)OC(C)=O` [Ac5GlcNAcol, Penta-O-acetyl N-acetylglucosaminitol], the “amount of NeuAc in the myotubes” value is listed as “further increased the amount of NeuAc”.

The values are drawn from patent US20120264928A1, “THERAPEUTIC PHARMACEUTICAL AGENT FOR DISEASES ASSOCIATED WITH DECREASE IN FUNCTION OF GNE PROTEIN, FOOD COMPOSITION, AND FOOD ADDITIVE” (JAPAN HEALTH SCIENCES FOUNDATION, priority 2009, published 2012).
